Measured values: PMC7756656, “Discovery of Homobivalent Bitopic Ligands of the Cannabinoid CB2 Receptor” (Chemistry (Weinheim an Der Bergstrasse, Germany), 2020)

What was measured:
CB1R (hCB1R) [1] = molecular target: T1, CB1R (hCB1R) (Homo sapiens, UniProt P21554); assay: [3H]CP-55, […] competition binding, HEK-293T membranes; settings: read-out: CB1R Ki [μM]^[b]
T1 construct: gene CNR1; expressed in HEK-293T cells; membrane fractions

CB2R (hCB2R) [2] = molecular target: T2, CB2R (hCB2R) (Homo sapiens, UniProt P34972); assay: as above; settings: read-out: CB2R Ki [μM]^[b]
T2 construct: gene CNR2; expressed in HEK-293T cells

CB2R (hCB2R) [3] = molecular target: T2, CB2R (hCB2R); assay: inhibition of forskolin-induced cAMP, HEK-293T cells; type: cell-based; settings: read-out: Wild type / pEC50 (converted)
CB2R (hCB2R) [4] = molecular target: T2, CB2R (hCB2R); assay: biochemical; type: HEK-293T membranes; design: [3H]CP-55,940 competition radioligand binding, membrane filtration, scintillation counting
Text: (§1) In vitro binding affinities of the alleged bitopic ligands 18–29 (Table 1) and the corresponding monovalent counterparts 6–17 (Table S1) were obtained from [^3H]CP‐55,940 competition‐binding assays using membrane fractions of the human CB1R and CB2R, respectively, expressed in HEK‐293T cells. […] Addition of the second pharmacophore makes bivalent ligands capable of binding CB2R in a selective manner. Optimal spacer length for N1‐ and N2‐ethyl derivatives is from 10 (n=8) to 14 (n=12) methylene units. S23 Aldrich, Madrid, Spain). Membranes were resuspended in the corresponding buffer and were incubated (90 min at 30 °C) with the radioligand and each compound at a high concentration (40 μM) with the purpose of determining the % of radioligand displacement. […] Nonspecific binding was determined with 10 μM WIN55212-2 (Sigma-Aldrich, Madrid, Spain) and total radioligand binding by incubation with the membranes in the absence of any compound. Filtration was performed by a Harvester filtermate (PerkinElmer, Boston, MA, USA) with Filtermat A GF/C filters pretreated with polyethylenimine 0.05%. After filtering, the filter was washed nine times with binding buffer and dried, and a melt-on scintillation sheet (MeltilexTM A, PerkinElmer, Boston, MA, USA) was melted onto it. Then, radioactivity was quantified by a liquid scintillation counter (Wallac MicroBeta Trilux, PerkinElmer, Boston, MA, USA). Competition binding data were analyzed by using GraphPad Prism, version 5.02 (GraphPad Software Inc., San Diego, CA, USA), and Ki values are expressed as the mean ± SEM of at least three experiments performed in triplicate for each. 2.2- cAMP determination assays. Determination of cAMP levels in HEK293 cells stably expressing the CB2R was performed using the Lance-Ultra cAMP kit (PerkinElmer) according to the manufacturer’s instructions. Briefly, HEK293 cells expressing the CB2R were dispensed in white 384-well microplates at a density of 5.000 cells per well. Finally, cells were incubated for 60 min at room temperature with HTRF assay reagents, and fluorescence at 665 nm was analyzed on a PHERAstar Flagship microplate reader equipped with an HTRF optical module (BMG Labtech). Data analysis was made based on the fluorescence ratio emitted by the labeled cAMP probe (665 nm) over the light emitted by the europium cryptate-labeled anti-cAMP antibody (620 nm). A standard curve was used to calculate cAMP concentration. Forskolin stimulated cAMP levels were normalized to 100%. Data was analyzed by using […]

CB1R (hCB1R) [5] = molecular target: T1, CB1R (hCB1R); assay: biochemical; type: HEK-293T membranes; design: [3H]CP-55,940 competition radioligand binding, membrane filtration, scintillation counting
Text: as §1

CB2R (hCB2R) [6] = molecular target: T2, CB2R (hCB2R); assay: biochemical; type: HEK-293T membranes; design: [3H]CP-55,940 competition radioligand binding, membrane filtration, scintillation counting; remark: listed apart in the source
Text: as §1, with “[…]” for “methylene”, “[compound left out]” for “WIN55212-2”, “[…]” for “liquid”

CB1R (hCB1R) [7] = molecular target: T1, CB1R (hCB1R); assay: biochemical; type: HEK-293T membranes; design: [3H]CP-55,940 competition radioligand binding, membrane filtration, scintillation counting; remark: listed apart in the source
Text: as §1, with “[…]” for “methylene”, “[compound left out]” for “WIN55212-2”, “[…]” for “liquid”

T1 sequence (P21554 whole entry): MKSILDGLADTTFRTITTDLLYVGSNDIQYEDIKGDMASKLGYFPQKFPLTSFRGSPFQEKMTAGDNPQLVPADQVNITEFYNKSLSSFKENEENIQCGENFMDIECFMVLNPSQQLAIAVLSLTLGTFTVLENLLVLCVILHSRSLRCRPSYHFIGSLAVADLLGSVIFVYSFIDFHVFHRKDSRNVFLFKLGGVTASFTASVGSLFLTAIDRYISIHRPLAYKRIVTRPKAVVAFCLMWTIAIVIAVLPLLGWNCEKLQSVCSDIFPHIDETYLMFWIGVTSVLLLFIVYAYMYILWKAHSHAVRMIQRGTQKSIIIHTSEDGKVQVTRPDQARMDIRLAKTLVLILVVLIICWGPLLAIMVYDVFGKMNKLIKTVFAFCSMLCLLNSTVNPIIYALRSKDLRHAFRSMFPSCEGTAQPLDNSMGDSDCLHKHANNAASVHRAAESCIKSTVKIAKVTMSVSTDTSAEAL
T2 sequence (P34972 whole entry): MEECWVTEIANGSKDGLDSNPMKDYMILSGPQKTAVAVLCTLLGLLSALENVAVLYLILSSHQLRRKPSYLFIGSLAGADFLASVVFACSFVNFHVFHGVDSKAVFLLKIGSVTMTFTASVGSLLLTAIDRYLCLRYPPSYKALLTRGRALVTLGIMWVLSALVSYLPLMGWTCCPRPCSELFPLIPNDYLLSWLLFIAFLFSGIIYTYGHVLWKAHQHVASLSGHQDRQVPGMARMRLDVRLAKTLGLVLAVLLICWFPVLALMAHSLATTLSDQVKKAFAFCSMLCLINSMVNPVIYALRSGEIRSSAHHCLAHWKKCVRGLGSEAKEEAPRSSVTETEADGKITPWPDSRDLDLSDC

Row | SMILES | Ki (CB1R (hCB1R) [1]) [µM] | Ki (CB2R (hCB2R) [2]) [µM] | Ki (CB2R (hCB2R) [6]) [µM] | Ki (CB1R (hCB1R) [7]) [µM] | further results
1 | CCCCCCC(C)(C)c1cc(OCCCCCCCCCCCCOc2cc(C(C)(C)CCCCCC)cc3c2-c2nn(CC)cc2C(C)(C)O3)c2c(c1)OC(C)(C)c1cn(CC)nc1-2 [compound 25, bivalent chromenopyrazole 25 (R1 = N2-Et, n = 10)] | > 40 | 0.3 ± 0.1 |  |  | EC50 (CB2R (hCB2R) [3]): 0.0631 µM
2 | CCCCCCC(C)(C)c1cc(OCCCCCCCCCCCCCCOc2cc(C(C)(C)CCCCCC)cc3c2-c2c(cnn2CC)C(C)(C)O3)c2c(c1)OC(C)(C)c1cnn(CC)c1-2 [compound 26] | > 40 | 0.8 ± 0.1 |  |  | EC50 (CB2R (hCB2R) [3]): 0.316 µM
3 | CCCCCCC(C)(C)c1cc(OCCCCCCCCCCCCCCCCOc2cc(C(C)(C)CCCCCC)cc3c2-c2nn(CC)cc2C(C)(C)O3)c2c(c1)OC(C)(C)c1cn(CC)nc1-2 [compound 29, bivalent chromenopyrazole 29 (R1 = N2-Et, n = 14)] | > 40 | 2.12 ± 0.21 |  |  | 
4 | CCCCCCC(C)(C)c1cc(OCCCCCCCCCCOc2cc(C(C)(C)CCCCCC)cc3c2-c2nn(CC)cc2C(C)(C)O3)c2c(c1)OC(C)(C)c1cn(CC)nc1-2 [compound 23, bivalent chromenopyrazole 23 (R1 = N2-Et, n = 8)] | > 40 | 5.8 ± 1.5 |  |  | 
5 | CCCCCCC(C)(C)c1cc(OCCCCCCOc2cc(C(C)(C)CCCCCC)cc3c2-c2c(cnn2CC)C(C)(C)O3)c2c(c1)OC(C)(C)c1cnn(CC)c1-2 [compound 18, bivalent chromenopyrazole 18 (R1 = N1-Et, n = 4)] | > 40 | 28.1 ± 1.6 |  |  | 
6 | CCCCCCCCCCCCCCOc1cc(C(C)(C)CCCCCC)cc2c1-c1nn(CC)cc1C(C)(C)O2 [compound 15, 15] |  |  |  |  | Ki (CB2R (hCB2R) [4]): > 40 µM; Ki (CB1R (hCB1R) [5]): > 40 µM
7 | CCCCCCOc1cc(C(C)(C)CCCCCC)cc2c1-c1c(cnn1CC)C(C)(C)O2 [compound 6, 7-(1,1-Dimethylheptyl)-1-ethyl-9-hexyloxy1,4-Dihydro-4,4-dimethylchromeno[4,3-c]pyrazole] |  |  | > 40 | > 40 | 
8 | CCCCCCCCCCCCCCCCOc1cc(C(C)(C)CCCCCC)cc2c1-c1c(cnn1CC)C(C)(C)O2 [compound 16, 7-(1,1-Dimethylheptyl)-1-ethyl-9-hexadecyloxy-1,4-dihydro-4,4-dimethylchromeno[4,3-c]pyrazole] |  |  | > 40 | > 40 | 
9 | CCCCCCCCCCOc1cc(C(C)(C)CCCCCC)cc2c1-c1nn(CC)cc1C(C)(C)O2 [compound 11, 9-Decyloxy-7-(1,1-dimethylheptyl)-2-ethyl-2,4-dihydro-4,4-dimethylchromeno[4,3-c]pyrazole] |  |  | > 40 | > 40 | 
10 | CCCCCCOc1cc(C(C)(C)CCCCCC)cc2c1-c1nn(CC)cc1C(C)(C)O2 [compound 7, 7-(1,1-Dimethylheptyl)-2-ethyl-9-hexyloxy-2,4-dihydro-4,4-dimethylchromeno[4,3-c]pyrazole] |  |  | > 40 | > 40 | 
11 | CCCCCCCCCCOc1cc(C(C)(C)CCCCCC)cc2c1-c1c(cnn1CC)C(C)(C)O2 [compound 10, 9-Decyloxy-7-(1,1-dimethylheptyl)-1-ethyl-1,4-dihydro-4,4-dimethylchromeno[4,3-c]pyrazole] |  |  | > 40 | > 40 | 
12 | CCCCCCC(C)(C)c1cc(OCCCCCCCCCCCCOc2cc(C(C)(C)CCCCCC)cc3c2-c2c(cnn2CC)C(C)(C)O3)c2c(c1)OC(C)(C)c1cnn(CC)c1-2 [compound 24, bivalent chromenopyrazole 24 (R1 = N1-Et, n = 10)] | > 40 | 0.4 ± 0.14 |  |  | EC50 (CB2R (hCB2R) [3]): 0.0631 µM
13 | CCCCCCCCCCCCOc1cc(C(C)(C)CCCCCC)cc2c1-c1nn(CC)cc1C(C)(C)O2 [compound 13, 7-(1,1-Dimethylheptyl)-9-dodecyloxy-2-ethyl-2,4-dihydro-4,4-dimethylchromeno[4,3-c]pyrazole] |  |  | > 40 | > 40 | 
14 | CCCCCCC(C)(C)c1cc(OCCCCCCOc2cc(C(C)(C)CCCCCC)cc3c2-c2nn(CC)cc2C(C)(C)O3)c2c(c1)OC(C)(C)c1cn(CC)nc1-2 [compound 19, bivalent chromenopyrazole 19 (R1 = N2-Et, n = 4)] | > 40 | 12.4 ± 2 |  |  | 
15 | CCCCCCCCOc1cc(C(C)(C)CCCCCC)cc2c1-c1c(cnn1CC)C(C)(C)O2 [compound 8, 7-(1,1-Dimethylheptyl)-1-ethyl-1,4-dihydro-4,4-dimethyl-9-octyloxychromeno[4,3-c]pyrazole] |  |  | > 40 | > 40 | 
16 | CCCCCCCCOc1cc(C(C)(C)CCCCCC)cc2c1-c1nn(CC)cc1C(C)(C)O2 [compound 9, 7-(1,1-Dimethylheptyl)-2-ethyl-2,4-dihydro-4,4-dimethyl-9-octyloxychromeno[4,3-c]pyrazole] |  |  | > 40 | > 40 | 
17 | CCCCCCCCCCCCCCOc1cc(C(C)(C)CCCCCC)cc2c1-c1c(cnn1CC)C(C)(C)O2 [compound 14, 7-(1,1-Dimethylheptyl)-1-ethyl-1,4-dihydro-4,4-dimethyl-9-tetradecyloxychromeno[4,3-c]pyrazole] |  |  | > 40 | > 40 | 
18 | CCCCCCCCCCCCCCCCOc1cc(C(C)(C)CCCCCC)cc2c1-c1nn(CC)cc1C(C)(C)O2 [compound 17, 17] |  |  |  |  | Ki (CB2R (hCB2R) [4]): > 40 µM; Ki (CB1R (hCB1R) [5]): > 40 µM
19 | CCCCCCCCCCCCOc1cc(C(C)(C)CCCCCC)cc2c1-c1c(cnn1CC)C(C)(C)O2 [compound 12, 7-(1,1-Dimethylheptyl)-9-dodecyloxy-1-ethyl-1,4-dihydro-4,4-dimethylchromeno[4,3-c]pyrazole] |  |  | > 40 | > 40 | 
20 | CCCCCCC(C)(C)c1cc(OCCCCCCCCOc2cc(C(C)(C)CCCCCC)cc3c2-c2c(cnn2CC)C(C)(C)O3)c2c(c1)OC(C)(C)c1cnn(CC)c1-2 [compound 20, bivalent chromenopyrazole 20 (R1 = N1-Et, n = 6)] | > 40 | 2.2 ± 0.7 |  |  | 
